Patent EP0519971B1, “NOVEL […] ACTIVE COMPOUNDS WHICH CAN BE FORMED FROM 1,3,4,6,7,8-HEXAHYDRO-2H-PYRIMIDO-(1,2-a)-PYRIMIDINE” (priority 1990, dated 1991)
Values belong to the compound of their own block, whether it stands above or below them.

Key:
[1] = Solubility in water of TBD salts (crude samples); assay type: physicochemical
Procedure: Solubilities were determined with the crude samples and indicate the volume of water sufficient to dissolve one gram of the salt.

Compound: C1CN=C2NCCCN2C1.O=C(O)c1cc2ccccc2[nH]1 [Example 2, salt of 1,5,7-triazabicyclo-[4.4.7]dec-5-ene (TBD, HHPP) with indole-2-carboxylic acid]
Solubility in distilled water (pH 6.5): 70 mg/mL
pH of solution (solution in water): 6.5

Compound: C1CN=C2NCCCN2C1.O=C(O)c1ccc(Cl)cc1[N+](=O)[O-] [Example 8, TBD 4-chloro-2-nitrobenzoate]
Solubility in water [1]: ≥ 10 g/100ml

Compound: C1CN=C2NCCCN2C1.O=C(O)Cc1ccc([N+](=O)[O-])cc1 [Example 9, TBD 4-nitrophenylacetate]
Solubility in water [1]: ≥ 20 g/100ml

Compound: C1CN=C2NCCCN2C1.O=C(O)Cc1ccc([N+](=O)[O-])cc1[N+](=O)[O-] [Example 10, TBD 2,4-dinitrophenylacetate]
Solubility in water [1]: ≥ 30 g/100ml

Compound: C1CN=C2NCCCN2C1.O=C(O)c1cc(Cl)ccc1[N+](=O)[O-] [Example 11, TBD 5-chloro-2-nitrobenzoate]
Solubility in water [1]: ≥ 40 g/100ml

Compound: C1CN=C2NCCCN2C1.O=C(O)c1ccc(Cl)c([N+](=O)[O-])c1 [Example 12, TBD 4-chloro-3-nitrobenzoate]
Solubility in water [1]: ≥ 40 g/100ml

Compound: C1CN=C2NCCCN2C1.O=C(O)c1cc([N+](=O)[O-])ccc1O [Example 13, TBD 5-nitrosalicylate (2-hydroxy-5-nitrobenzoate)]
Solubility in water [1]: ≥ 160 g/100ml

Compound: C1CN=C2NCCCN2C1.O=C(O)c1ccc([N+](=O)[O-])c(O)c1 [Example 14, TBD 3-hydroxy-4-nitrobenzoate]
Solubility in water [1]: ≥ 30 g/100ml

Compound: C1CN=C2NCCCN2C1.O=C(O)c1ccccc1I [Example 15, TBD 2-iodobenzoate]
Solubility in water [1]: ≥ 10 g/100ml

Compound: C1CN=C2NCCCN2C1.C1CN=C2NCCCN2C1.O=C(O)c1cc(C(=O)O)cc([N+](=O)[O-])c1 [Example 17, TBD 5-nitroisophthalate (5-nitrobenzene-1,3-dicarboxylic acid bis TBD salt)]
Solubility in water [1]: ≥ 30 g/100ml

Solubility in water [1]: ≥ 10 g/100ml
Compound: TBD 5-amino-5-hydroxybenzoate [Example 16]
